Assay results as given in ChEMBL document CHEMBL5257129, “Design, synthesis, and anticancer evaluation of arylurea derivatives as potent and selective type II irreversible covalent FGFR4 inhibitors” (Bioorg Med Chem, 2023).

Legend:
Huh-7 [1] = assay: Antiproliferative activity against human Huh-7 cells assessed as inhibition of cell growth at 10 uM measured after 72 hrs by CCK8 assay; type: functional
Hep 3B2 [2] = assay: Antiproliferative activity against human Hep3B cells assessed as inhibition of cell growth at 10 uM measured after 72 hrs by CCK8 assay; type: functional
Huh-7 [3] = assay: Antiproliferative activity against human Huh-7 cells assessed as inhibition of cell growth measured after 72 hrs by CCK8 assay; type: functional, cell-based; settings: Huh-7, 72 h
Hep 3B2 [4] = assay: Antiproliferative activity against human Hep3B cells assessed as inhibition of cell growth measured after 72 hrs by CCK8 assay; type: functional, cell-based
[5] = Half life in Sprague-Dawley rat at 5 mg/kg, iv measured upto 24 hrs by LC/MS/MS analysis; type: ADME, organism-based; settings: in vivo
[6] = Tmax in Sprague-Dawley rat at 5 mg/kg, iv measured upto 24 hrs by LC/MS/MS analysis; type: ADME, organism-based; settings: in vivo
[7] = Initial plasma concentration in Sprague-Dawley rat at 5 mg/kg, iv measured upto 24 hrs by LC/MS/MS analysis; type: ADME, organism-based
[8] = Cmax in Sprague-Dawley rat at 5 mg/kg, iv measured upto 24 hrs by LC/MS/MS analysis; type: ADME, organism-based; set-up: time < 24 hrs, dose 5 mg/kg, route iv; settings: in vivo
[9] = AUC(0 to t) in Sprague-Dawley rat at 5 mg/kg, iv measured upto 24 hrs by LC/MS/MS analysis; type: ADME, organism-based; set-up: time < 24 hrs, dose 5 mg/kg, route iv; settings: in vivo
[10] = AUC(0 to infinity) in Sprague-Dawley rat at 5 mg/kg, iv measured upto 24 hrs by LC/MS/MS analysis; type: ADME, organism-based; set-up: dose 5 mg/kg, time < 24 hrs, route iv; settings: in vivo
[11] = Apparent volume of distribution in Sprague-Dawley rat at 5 mg/kg, iv measured upto 24 hrs by LC/MS/MS analysis; type: ADME, organism-based; settings: in vivo, read-out: Vz
[12] = Clearance in Sprague-Dawley rat at 5 mg/kg, iv measured upto 24 hrs by LC/MS/MS analysis; type: ADME, organism-based; settings: in vivo
[13] = Mean residence time (0 to t) in Sprague-Dawley rat at 5 mg/kg, iv measured upto 24 hrs by LC/MS/MS analysis; type: ADME, organism-based; settings: in vivo
[14] = Half life in Sprague-Dawley rat at 20 mg/kg, po measured upto 24 hrs by LC/MS/MS analysis; type: ADME, organism-based; settings: in vivo
[15] = Tmax in Sprague-Dawley rat at 20 mg/kg, po measured upto 24 hrs by LC/MS/MS analysis; type: ADME, organism-based; settings: in vivo
[16] = Cmax in Sprague-Dawley rat at 20 mg/kg, po measured upto 24 hrs by LC/MS/MS analysis; type: ADME, organism-based; set-up: dose 20 mg/kg, time < 24 hrs, route po; settings: in vivo
[17] = AUC(0 to t) in Sprague-Dawley rat at 20 mg/kg, po measured upto 24 hrs by LC/MS/MS analysis; type: ADME, organism-based; set-up: dose 20 mg/kg, time < 24 hrs, route po; settings: in vivo
[18] = AUC(0 to infinity) in Sprague-Dawley rat at 20 mg/kg, po measured upto 24 hrs by LC/MS/MS analysis; type: ADME, organism-based; set-up: dose 20 mg/kg, time < 24 hrs, route po; settings: in vivo
[19] = Mean residence time (0 to t) in Sprague-Dawley rat at 20 mg/kg, po measured upto 24 hrs by LC/MS/MS analysis; type: ADME, organism-based; settings: in vivo

With `CC#CC(=O)Nc1ccc(Oc2ccc(NC(=O)Nc3ccc(CN4CCN(C)CC4)c(C(F)(F)F)c3)c(C)c2)cn1` the inhibition at 10 µM (Huh-7 [1]) was 93.2% and the inhibition at 10 µM (Hep 3B2 [2]) was 92.3%.

For `C=CC(=O)Nc1ccc(-c2ccc(NC(=O)Nc3ccc(CN4CCN(C)CC4)c(C(F)(F)F)c3)cc2C)cn1`, the inhibition at 10 µM (Huh-7 [1]) was 96.9% and the inhibition at 10 µM (Hep 3B2 [2]) was 95.3%.

Work on `C=CC(=O)Nc1ccc(-c2ccc(NC(=O)Nc3ccc(CN4CCN(CC)CC4)c(C(F)(F)F)c3)c(C)c2)cn1` yielded an inhibition at 10 µM (Huh-7 [1]) of 80.3% and an inhibition at 10 µM (Hep 3B2 [2]) of 85.4%.

In the case of `C=CC(=O)Nc1ccc(Oc2ccc(NC(=O)Nc3ccc(CN4CCN(C)CC4)c(C(F)(F)F)c3)cc2)cn1`, the inhibition at 10 µM (Huh-7 [1]) is reported as 97.7%, the inhibition at 10 µM (Hep 3B2 [2]) is reported as 91% and the IC50 (Huh-7 [3]) is reported as 0.25 µM. The IC50 (Hep 3B2 [4]) was 0.22 µM, the half-life [5] was 4.75 h and the Tmax [6] was 4.98 min. The C0 at 24 h [7] was 4930 ng/mL, the Cmax [8] was 4190 ng/mL and the AUC(0-t) at 24 h [9] was 4240 ng·h/mL. The AUC(0-inf) [10] was 4260 ng·h/mL, the Vd [11] was 8.1 L/kg and the clearance [12] was 19.6 mL/min/kg. It also gave an MRT last at 24 h [13] of 1.25 h, a half-life [14] of 3.12 h and a Tmax [15] of 2.67 h. For the same compound, the Cmax [16] was 23.7 ng/mL, the AUC(0-t) at 24 h [17] was 140 ng·h/mL and the AUC(0-inf) [18] was 149 ng·h/mL. The MRT last at 24 h [19] was 3.99 h.

Work on `C/C=C/C(=O)Nc1ccc(Oc2ccc(NC(=O)Nc3ccc(CN4CCN(C)CC4)c(C(F)(F)F)c3)c(C)c2)cn1` yielded an inhibition at 10 µM (Huh-7 [1]) of 86.7%, an inhibition at 10 µM (Hep 3B2 [2]) of 87% and an IC50 (Huh-7 [3]) of 1.02 µM. For the same compound, the IC50 (Hep 3B2 [4]) was 1.12 µM.

Compound `C=C(F)C(=O)Nc1ccc(-c2ccc(NC(=O)Nc3ccc(CN4CCN(C)CC4)c(C(F)(F)F)c3)c(C)c2)cn1` has an inhibition at 10 µM (Huh-7 [1]) of 93%, an inhibition at 10 µM (Hep 3B2 [2]) of 91.2% and an IC50 (Huh-7 [3]) of 3.38 µM. For the same compound, the IC50 (Hep 3B2 [4]) was 3.24 µM.

With `C=CC(=O)Nc1ccc(-c2ccc(NC(=O)Nc3ccc(CN4CCN(C)CC4)c(C(F)(F)F)c3)c(C)c2)cn1` the inhibition at 10 µM (Huh-7 [1]) was 94.8%, the inhibition at 10 µM (Hep 3B2 [2]) was 94.6% and the IC50 (Huh-7 [3]) was 3.35 µM. For the same compound, the IC50 (Hep 3B2 [4]) was 3.18 µM.

Compound `Cc1cc(-c2ccc(NC(=O)CCl)nc2)ccc1NC(=O)Nc1ccc(CN2CCN(C)CC2)c(C(F)(F)F)c1` has an inhibition at 10 µM (Huh-7 [1]) of 80.9%, an inhibition at 10 µM (Hep 3B2 [2]) of 87.6% and an IC50 (Huh-7 [3]) of 21.5 µM. It also gave an IC50 (Hep 3B2 [4]) of 22.1 µM.

For `C=CC(=O)Nc1ccc(-c2ccc(NC(=O)Nc3ccc(CN4CCN(C)CC4)c(C(F)(F)F)c3)cc2F)cn1`, the inhibition at 10 µM (Huh-7 [1]) was 96.7% and the inhibition at 10 µM (Hep 3B2 [2]) was 95.7%.

`C=CC(=O)Nc1ccc(-c2ccc(NC(=O)Nc3ccc(CN4CCN(C)CC4)c(C(F)(F)F)c3)cc2)cn1` showed an inhibition at 10 µM (Huh-7 [1]) of 94.8% and an inhibition at 10 µM (Hep 3B2 [2]) of 95.8%.

Work on `C=CC(=O)Nc1ccc(Oc2ccc(NC(=O)Nc3ccc(CN4CCN(C)CC4)c(C(F)(F)F)c3)c(C)c2)cn1` yielded an inhibition at 10 µM (Huh-7 [1]) of 87.2% and an inhibition at 10 µM (Hep 3B2 [2]) of 84.7%.

For `C=CC(=O)Nc1ccc(-c2ccc(NC(=O)Nc3ccc(CN4CCN(C)CC4)c(C(F)(F)F)c3)nc2)cn1`, the inhibition at 10 µM (Huh-7 [1]) was 59% and the inhibition at 10 µM (Hep 3B2 [2]) was 67%.

For `C=CC(=O)Nc1ccc(-c2ccc(NC(=O)Nc3ccc(CN4CCN(C)CC4)c(C(F)(F)F)c3)c(Cl)c2)cn1`, the inhibition at 10 µM (Huh-7 [1]) was 91.4%, the inhibition at 10 µM (Hep 3B2 [2]) was 99.1% and the IC50 (Huh-7 [3]) was 1.62 µM. For the same compound, the IC50 (Hep 3B2 [4]) was 1.27 µM.

`C=CC(=O)Nc1ccc(-c2cnc(NC(=O)Nc3ccc(CN4CCN(C)CC4)c(C(F)(F)F)c3)cn2)cn1` gave an inhibition at 10 µM (Huh-7 [1]) of 84.5% and an inhibition at 10 µM (Hep 3B2 [2]) of 86.1%.

`Cc1ccc(C(=O)Nc2ccc(CN3CCN(C)CC3)c(C(F)(F)F)c2)cc1C#Cc1cnc2cccnn12` [PONATINIB] showed an inhibition at 10 µM (Huh-7 [1]) of 90.5%, an inhibition at 10 µM (Hep 3B2 [2]) of 95.5% and an IC50 (Huh-7 [3]) of 0.99 µM. For the same compound, the IC50 (Hep 3B2 [4]) was 0.72 µM.
